# From the Kinase Knowledgebase extract (Sharma et al. 2016)
# Target: PIK3CB;PIK3CG;PIK3CD;PIK3CA (human) (UniProt P48736)
# Assay: Inhibition of PIK3CA/PIK3CB/PIK3CD/PIK3CG Kinase Activity
row,Compound,IC50
1,COc1ccc(CC2CCN(C)CC2)c(Nc2nc3ccccc3nc2NS(=O)(=O)c2cn(C)cn2)c1,43 nM
2,COc1ccc(CC2CCN(C(C)=O)CC2)c(Nc2nc3ccccc3nc2NS(=O)(=O)c2cccnc2)c1,51 nM
3,COc1ccc(CCO)c(Nc2nc3ccccc3nc2NS(=O)(=O)c2ccc(C(=O)N(C)C)cc2)c1,250 nM
4,COc1ccc(CN2CCN(C)CC2)c(Nc2nc3ccccc3nc2NS(=O)(=O)c2cccnc2)c1,49 nM
5,COc1ccc(CC2CCC(O)CC2)c(Nc2nc3ccccc3nc2NS(=O)(=O)c2ccc(CN(C)C)cc2)c1 (stereo not given),26 nM
6,COc1ccc(CC2CCN(C(=O)CN(C)C)CC2)c(Nc2nc3ccccc3nc2NS(=O)(=O)c2cn(C)cn2)c1,100 nM
7,CCS(=O)(=O)Nc1nc2ccccc2nc1Nc1cc(OC)ccc1CCCO,59 nM
8,COc1ccc(CC2CCS(=O)(=O)CC2)c(Nc2nc3ccccc3nc2NS(=O)(=O)c2cn(C)cn2)c1,30 nM
9,COc1ccc(CC2CC(C)(C)N(C)C(C)(C)C2)c(Nc2nc3ccccc3nc2NS(=O)(=O)c2cn(C)cn2)c1,420 nM
10,COc1ccc(CCCO)c(Nc2nc3ccccc3nc2NS(=O)(=O)c2cn(C)c(CN(C)C)n2)c1,28 nM
11,COc1ccc(CCO)c(Nc2nc3ccccc3nc2NS(=O)(=O)C2CCCCC2)c1,57 nM
12,CC#N.COc1ccc(CCCO)c(Nc2nc3ccccc3nc2NS(=O)(=O)c2cn(C)cn2)c1,21 nM
13,COc1ccc(CCS(C)(=O)=O)c(Nc2nc3ccccc3nc2NS(=O)(=O)c2c(C)noc2C)c1,190 nM
14,COc1ccc(CCCO)c(Nc2nc3ccccc3nc2NS(=O)(=O)C(C)C)c1,72 nM
15,COc1ccc(CC2CCN(C)CC2)c(Nc2nc3ccccc3nc2NS(C)(=O)=O)c1,110 nM
16,COc1ccc(CCO)c(Nc2nc3ccccc3nc2NS(=O)(=O)c2ccc(CN(C)C)cc2)c1,26 nM
17,COc1ccc(CO)c(Nc2nc3ccccc3nc2NS(=O)(=O)c2cn(C)cn2)c1,470 nM
18,COc1ccc(CCO)c(Nc2nc3ccccc3nc2NS(=O)(=O)c2ccc(C#N)cc2)c1,22 nM
19,COc1ccc(CC2CCC(O)CC2)c(Nc2nc3ccccc3nc2NS(=O)(=O)c2cccnc2)c1 (stereo not given),20 nM
20,COc1ccc(CCO)c(Nc2nc3ccccc3nc2NS(=O)(=O)c2ccc(OCCO)cc2)c1,34 nM
21,COc1cc(Nc2nc3ccccc3nc2NS(=O)(=O)c2cccnc2)cc(C(=O)N2CCN(C)CC2)c1,3340 nM
22,CCCS(=O)(=O)Nc1nc2ccccc2nc1Nc1cc(OC)ccc1CCS(C)(=O)=O,87 nM

row,Compound,IC50
1,COC(=O)c1ccc(OC)cc1Nc1nc2ccccc2nc1NS(C)(=O)=O,1650 nM
2,COc1ccc(CCO)c(Nc2nc3ccccc3nc2NS(=O)(=O)c2ccc(F)cc2)c1,23 nM
3,COc1ccc(CCCO)c(Nc2nc3ccccc3nc2NS(=O)(=O)C2CCN(C(=O)OCc3ccccc3)CC2)c1,720 nM
4,COc1ccc(CCCO)c(Nc2nc3ccccc3nc2NS(=O)(=O)c2cn(C)c(CS(C)(=O)=O)n2)c1,87 nM
5,COc1ccc(CC2CCN(C(C)=O)CC2)c(Nc2nc3ccccc3nc2NS(=O)(=O)c2cn(C)cn2)c1,89 nM
6,CCCS(=O)(=O)Nc1nc2ccccc2nc1Nc1cc(OC)ccc1CCCO,49 nM
7,COCCc1ccc(OC)cc1Nc1nc2ccccc2nc1NS(=O)(=O)C1CCN(C(C)=O)CC1,300 nM
8,COc1ccc(CCCO)c(Nc2nc3ccccc3nc2NS(=O)(=O)C2CCNCC2)c1,26 nM
9,COc1ccc(CC2CCN(C)CC2)c(Nc2nc3ccccc3nc2NS(=O)(=O)c2cccnc2)c1,45 nM
10,COc1ccc(CCCO)c(Nc2nc3ccccc3nc2NS(=O)(=O)c2cccc(NC(=O)CO)c2)c1,12 nM
11,COc1ccc(CCCO)c(Nc2nc3ccccc3nc2NS(=O)(=O)c2ccc(NC(=O)CN(C)C)cc2)c1,32 nM
12,COc1ccc(CC2CCCCC2)c(Nc2nc3ccccc3nc2NS(=O)(=O)c2cccnc2)c1,490 nM
13,COc1ccc(C(CO)CO)c(Nc2nc3ccccc3nc2NS(=O)(=O)c2cn(C)cn2)c1,550 nM
14,COc1ccc(CCO)c(Nc2nc3ccccc3nc2NS(=O)(=O)CCCS(C)(=O)=O)c1,120 nM
15,COc1ccc(CCCO)c(Nc2nc3ccccc3nc2NS(=O)(=O)CCCS(C)(=O)=O)c1,120 nM
16,COc1cc(Nc2nc3ccccc3nc2NS(=O)(=O)c2cccnc2)cc(C(=O)N2CCOCC2)c1,3100 nM
17,COc1ccc(CCCS(C)(=O)=O)c(Nc2nc3ccccc3nc2NS(=O)(=O)c2cn(C)cn2)c1,50 nM
18,COc1ccc(CCOC(=O)[C@@H](N)C(C)C)c(Nc2nc3ccccc3nc2NS(=O)(=O)c2cn(C)cn2)c1,100 nM
19,COc1ccc(CC(O)CO)c(Nc2nc3ccccc3nc2NS(=O)(=O)c2cn(C)cn2)c1 (stereo not given),120 nM
20,COc1ccc(CCO)c(Nc2nc3ccccc3nc2NS(=O)(=O)c2ccc(NC(=O)CN(C)C)cc2)c1,27 nM
21,COc1ccc(CCCO)c(Nc2nc3ccccc3nc2NS(=O)(=O)c2cccc(NC(=O)COCc3ccccc3)c2)c1,480 nM
22,COc1ccc(CCCO)c(Nc2nc3ccccc3nc2NS(=O)(=O)c2cccc(NC(=O)CN(C)C)c2)c1,30 nM

row,Compound,IC50
1,COc1ccc(CCO)c(Nc2nc3ccccc3nc2NS(=O)(=O)c2cccnc2)c1,40 nM
2,COc1cc(Nc2nc3ccccc3nc2NS(=O)(=O)c2cn(C)cn2)cc(C(=O)NCCO)c1,100 nM
3,COc1ccc(CCOC(=O)[C@@H](NC(=O)OCC2c3ccccc3-c3ccccc32)C(C)C)c(Nc2nc3ccccc3nc2NS(=O)(=O)c2cn(C)cn2)c1,1840 nM
4,COC(=O)c1ccc(OC)cc1Nc1nc2ccccc2nc1NS(=O)(=O)c1cccnc1,88 nM
5,COc1ccc(CC2CCN(S(C)(=O)=O)CC2)c(Nc2nc3ccccc3nc2NS(=O)(=O)c2cn(C)cn2)c1,160 nM
6,COc1ccc(CC2CCC(O)CC2)c(Nc2nc3ccccc3nc2NS(=O)(=O)c2cn(C)cn2)c1 (stereo not given),18 nM
7,COc1ccc(CCO)c(Nc2nc3ccccc3nc2NS(=O)(=O)c2c(C)noc2C)c1,286 nM
8,COc1ccc(CCS(C)(=O)=O)c(Nc2nc3ccccc3nc2NS(=O)(=O)c2cn(C)c(CN(C)C)n2)c1,87 nM
9,COCCNC(=O)c1cc(Nc2nc3ccccc3nc2NS(=O)(=O)c2cn(C)cn2)cc(OC)c1,400 nM
10,COc1ccc(CCO)c(Nc2nc3ccccc3nc2NS(=O)(=O)c2ccc(NC(=O)CO)cc2)c1,65 nM
11,COc1ccc(CC2CCSCC2)c(Nc2nc3ccccc3nc2NS(=O)(=O)c2ccc(CN(C)C)cc2)c1,35 nM
12,CCS(=O)(=O)Nc1nc2ccccc2nc1Nc1cc(OC)ccc1CCS(C)(=O)=O,88 nM
13,COc1ccc(CCS(C)(=O)=O)c(Nc2nc3ccccc3nc2NS(=O)(=O)c2cn(C)cn2)c1,84 nM
14,COc1ccc(CC2CCOCC2)c(Nc2nc3ccccc3nc2NS(=O)(=O)c2ccc(F)cc2)c1,150 nM
15,COCCc1ccc(OC)cc1Nc1nc2ccccc2nc1NS(=O)(=O)C1CCNCC1,98 nM
16,COc1ccc(CC2CCOCC2)c(Nc2nc3ccccc3nc2NS(=O)(=O)c2cn(C)cn2)c1,49 nM
17,COc1ccc(CCS(C)(=O)=O)c(Nc2nc3ccccc3nc2NS(=O)(=O)c2ccccc2)c1,42 nM
18,COC(=O)CCc1ccc(S(=O)(=O)Nc2nc3ccccc3nc2Nc2cc(OC)ccc2CCO)cc1,70 nM
19,COc1ccc(CCCO)c(Nc2nc3ccccc3nc2NS(=O)(=O)C2CCS(=O)(=O)C2)c1 (stereo not given),130 nM
20,COc1ccc(CCCN(C)C)c(Nc2nc3ccccc3nc2NS(=O)(=O)c2cn(C)cn2)c1,11 nM
21,COc1ccc(CCS(C)(=O)=O)c(Nc2nc3ccccc3nc2NS(C)(=O)=O)c1,200 nM
